Like-named read-outs stand apart in the source and are kept apart here.
Experiments:
VSV-G pseudovirus = assay: microbe, parasite or virus in culture; assay type: cell-based; details: read-out: VSV-G Pseudovirus EC50
[1] = tested on: SARS-CoV-2 S-G614 pseudovirus; details: for EC50: read-out: S-G614 Pseudovirus EC50
in vitro = details: human, 293T-ACE2 CC50
[2] = tested on: SARS-CoV-2 S-G614 pseudovirus; assay: organism not typed; details: 293T/ACE2, read-out: S-G614 Pseudovirus EC50
S-G614 pseudovirus [3] = assay: microbe, parasite or virus in culture; assay type: cell-based, SARS-CoV-2; details: for EC50: Pseudovirus, 293T/ACE2, read-out: 293T-ACE2 Cells EC50 BAPTA-AM (0μM)
[4] = tested on: SARS-CoV-2 S-mediated membrane fusion of 293T-ACE2 cells; assay type: cell-based
native SARS-CoV-2 = assay type: cell-based
[5] = biological target: receptor-binding domain (RBD) in the S protein of SARS-CoV-2 (Severe acute respiratory syndrome coronavirus 2, UniProt P0DTC2)
S-G614 pseudovirus [6] = assay: microbe, parasite or virus in culture; assay type: cell-based; details: read-out: EC50 against S-G614 pseudovirus in all three cell lines
SARS-CoV-2 = details: cited from earlier work

| Compound | EC50 (VSV-G pseudovirus; Pseudovirus) | SI (cytotoxicity) ([1]; human) | CC50 (in vitro) | EC50 [2] | CC50 (293T-ACE2 cells) | SI (cytotoxicity) [1] | EC50 [1] | EC50 (VSV-G pseudovirus) | other results |
| --- | --- | --- | --- | --- | --- | --- | --- | --- | --- |
| CCOC(=O)[C@H]1O[C@@H]1C(=O)N[C@@H](CC(C)C)C(=O)NCCC(C)C [Aloxistatin, aloxistatin, reference compound] | > 50 µM | >54.17 | > 50 µM | 923 nM |  |  |  |  |  |
| CC(=O)OCOC(=O)CN(CC(=O)OCOC(C)=O)c1ccccc1OCCOc1ccccc1N(CC(=O)OCOC(C)=O)CC(=O)OCOC(C)=O [BAPTA-AM, reference compound] |  |  |  |  |  |  |  |  | SARS-CoV-2 pseudovirus infection on intracellular Ca2+ chelation (S-G614 pseudovirus [3]): significantly diminished |
| COc1c2c(cc3c1-c1c(cc4c(c1OC)OCO4)C[C@H](C)[C@H](C)C3)OCO2 [SC8, Schisandrin C] |  | >3.43 | > 50 µM | 14600 nM |  |  |  |  |  |
| COc1ccc2cc1Oc1ccc(cc1)C[C@H]1c3c(cc4c(c3Oc3cc5c(cc3OC)CCN(C)[C@@H]5C2)OCO4)CCN1C [SC9, Cepharanthine] |  |  |  |  |  |  |  |  | decrease of fusion rates [4]: approximately 90%; EC50 (S-G614 pseudovirus [3]): 315 nM; Virus-induced cytopathogenic effect and viral RNA levels (native SARS-CoV-2): partially inhibited; relative viral RNA levels (native SARS-CoV-2): 0.08%; interaction with RBD [5]: negligible; EC50 (S-G614 pseudovirus [6]): < 10 µM |
| CC(N)C12CC3CC(CC(C3)C1)C2.Cl (stereo not shown) [SC16, Rimantadine (hydrochloride)] |  |  |  |  | > 50 µM | >1.45 | 34600 nM |  |  |
| Cc1cccc2c3c(ccc12)C1=C(C(=O)C3=O)[C@@H](C)CO1 [SC24, Dihydrotanshinone I] |  | 0.90 | 33.5 µM | 15700 nM |  |  |  |  |  |
| Cl.N=c1ccn2c(n1)O[C@H]1[C@H](O)[C@@H](CO)O[C@H]12 [SC33, Ancitabine (hydrochloride)] |  |  |  |  | > 50 µM | >4.94 | 10100 nM | > 50 µM |  |
| O=C1Nc2ccc(Cl)cc2[C@@](C#CC2CC2)(C(F)(F)F)O1 [SC102, Efavirenz] | 0.000723 µM | >130890 | > 50 µM | 0.38 nM |  |  |  |  |  |
| Cc1nnc(C(=O)NC(C)(C)c2nc(C(=O)NCc3ccc(F)cc3)c([O-])c(=O)n2C)o1.[K+] [SC109, Raltegravir (potassium salt)] |  |  |  |  | > 50 µM | >247647 | 0.2 nM | 0.0359 µM |  |
| COc1ccc2cc1Oc1ccc(cc1)C[C@H]1c3cc(c(OC)cc3CCN1C)Oc1c(OC)c(OC)c(OC)c3c1[C@H](C2)N(C)CC3 [SC161, Hernandezine] |  |  |  |  |  |  |  |  | decrease of fusion rates [4]: approximately 90%; EC50 (S-G614 pseudovirus [3]): 111 nM; Virus-induced cytopathogenic effect and viral RNA levels (native SARS-CoV-2): partially inhibited; relative viral RNA levels (native SARS-CoV-2): 70.27%; interaction with RBD [5]: negligible; EC50 (S-G614 pseudovirus [6]): < 10 µM |
| CC1CCN(CC(O)COc2cccc(OCC(O)CN3CCC(C)CC3)c2)CC1 (stereo not shown) [SC171, 3,3'-(1,3-phenylenebis(oxy))bis(1-(4-methylpiperidin-1-yl)propan-2-ol)] |  |  |  |  |  |  |  |  | EC50 (S-G614 pseudovirus [3]): 3830 nM; Virus-induced cytopathogenic effect and viral RNA levels (native SARS-CoV-2): partially inhibited; relative viral RNA levels (native SARS-CoV-2): 43.55%; interaction with RBD [5]: negligible; EC50 (S-G614 pseudovirus [6]): < 10 µM |
| COc1ccc2cc1Oc1ccc(cc1)C[C@H]1c3cc(c(OC)cc3CCN1C)Oc1c(O)c(OC)cc3c1[C@H](C2)N(C)CC3 [SC180, Fangchinoline] | 4.39 µM | >53.39 | > 50 µM | 940 nM |  |  |  |  |  |
| COc1ccc2cc1Oc1ccc(cc1)CC1c3cc(c(OC)cc3CCN1C)Oc1c(O)c(OC)cc3c1C(C2)N(C)CC3 (stereo not shown) [SC181, Isofangchinoline] |  |  |  |  | > 50 µM | >45.00 | 1110 nM | 3.95 µM |  |
| COc1ccc2cc1Oc1ccc(cc1)C[C@H]1c3cc(c(OC)cc3CCN1C)Oc1c(OC)c(OC)cc3c1[C@H](C2)N(C)CC3 [SC182, Tetrandrine] | 27.9 µM | >55.80 | > 50 µM | 900 nM |  |  |  |  | decrease of fusion rates [4]: approximately 90%; EC50 (S-G614 pseudovirus [6]): < 10 µM |
| COc1cc2c(cc1OC)[C@@H](Cc1ccc(Oc3cc(C[C@@H]4c5cc(OC)c(OC)cc5CCN4C)ccc3O)cc1)N(C)CC2 [SC184, Dauricine] | > 50 µM | >34.99 | > 50 µM | 1430 nM |  |  |  |  |  |
| COc1ccc(C[C@@H]2c3cc(Oc4cc(C[C@@H]5c6cc(OC)c(OC)cc6CCN5C)ccc4O)c(OC)cc3CCN2C)cc1 [SC185, Neferine] | > 50 µM |  | > 50 µM | 950 nM |  |  |  |  | decrease of fusion rates [4]: approximately 90%; EC50 (S-G614 pseudovirus [3]): 946 nM; Virus-induced cytopathogenic effect and viral RNA levels (native SARS-CoV-2): partially inhibited; relative viral RNA levels (native SARS-CoV-2): 76.98%; interaction with RBD [5]: negligible; EC50 (S-G614 pseudovirus [6]): < 10 µM |
| COc1cc2c(cc1OC)[C@@H](Cc1ccc(O)c(Oc3cc4c(cc3OC)CCN(C)[C@@H]4Cc3ccc(O)cc3)c1)N(C)CC2 [SC186, Liensinine] |  |  |  |  | > 50 µM | >49.80 | 1000 nM | > 50 µM |  |
| COc1cc2c(cc1O)[C@@H](Cc1ccc(O)c(Oc3ccc(C[C@@H]4c5cc(OC)c(OC)cc5CCN4C)cc3)c1)N(C)CC2 [SC187, Daurisoline] |  |  |  |  | > 50 µM | >20.13 | 2480 nM | > 50 µM |  |
| COc1ccc(C[C@@H]2c3cc(Oc4cc(C[C@@H]5c6cc(O)c(OC)cc6CCN5C)ccc4O)c(OC)cc3CCN2C)cc1 [SC188, Isoliensinine] | 7.02 µM | >38.88 | > 50 µM | 1290 nM |  |  |  |  |  |
| CCOC(=O)C1=C(COCCN)NC(C)=C(C(=O)OC)C1c1ccccc1Cl (stereo not shown) [amlodipine] |  |  |  |  |  |  |  |  | viral infection (SARS-CoV-2): reduced viral infection |
| Aloperine [SC96] |  |  |  |  | > 50 µM | >176.87 | 280 nM | 10.8 µM |  |
| Berbamine hydrochloride [SC183] |  | >38.94 |  |  |  |  | 1280 nM | > 50 µM | CC50 (293T-ACE2 cells; human): > 50 µM |

From publication PMC7985570 (Signal Transduction and Targeted Therapy, 2021)
